Patent US20140065103A1 (VERTEX PHARMACEUTICALS INCORPORATED, priority 2010, published 2014)
Where two headings read alike, the source gives them in different places.

What was measured:
[1] = tested on: HCV sub-genomic replicon of genotype 1a in replicon cell line W11.8; experiment: microbe, parasite or virus in culture; format: cell-based, Hepatitis C virus; conditions: read-out: HCV-Replicon-ELISA-1a IC50
[2] = tested on: Huh-7 ET, Molt-4, DU-145, Hep-G2 and SH-SY5Y cells; experiment: [3H]Thymidine incorporation assay (cytotoxicity, CC50); conditions: [3H]thymidine incorporation; cell line not given
[3] = tested on: HCV replicon (genotype 1b) in Huh7 hepatoma cell line ET; experiment: microbe, parasite or virus in culture; format: cell-based, Hepatitis C virus; conditions: Hepatitis C virus, Huh-7, 96 h, read-out: HCV-Replicon-1b_IC50
[4] = [3H]Thymidine incorporation assay (cytotoxicity, CC50); conditions: human

## CC(C)C#Cc1cc(N(C(=O)[C@H]2CC[C@H](C)CC2)[C@H]2CC[C@H](OCCO)CC2)c(C(=O)O)s1 [Compound 62, 5-(3-Methylbut-1-yn-1-yl)-3-((N-4-trans-(2-hydroxy)-ethoxycyclohexyl)-(4-trans-methylcyclohexane)carboxamido)thiophene-2-carboxylic acid]
[1]
  IC50: < 0.1 µM
[2]
  CC50: 10 to 100 µM

## CC(C)c1noc(C(C)N(c2cc(C#CC(C)(C)C)sc2C(=O)O)C(=O)[C@H]2CC[C@H](C)CC2)n1 (some centres unmarked) [Compound 79]
[1]
  IC50: 0.1 to 1 µM
[2]
  CC50: 10 to 100 µM

## CC(C)C#Cc1cc(N(C(=O)[C@H]2CC[C@H](C)CC2)[C@H]2CC[C@@H](OCCO)CC2)c(C(=O)O)s1 [Compound 61, 5-(3-Methylbut-1-yn-1-yl)-3-((N-4-cis-(2-hydroxy)-ethoxycyclohexyl)-(4-trans-methylcyclohexane)carboxamido)thiophene-2-carboxylic acid]
[1]
  IC50: 0.1 to 1 µM
[2]
  CC50: 10 to 100 µM

## COCC(COC)N(c1cc(C#CC(C)(C)C)sc1C(=O)O)C(=O)[C@H]1CC[C@H](C)CC1 [Compound 39, 3-(-N-(1,3-Dimethoxypropan-2-yl)-4-trans-methylcyclohexanecarboxamido)-5-(3,3-dimethylbut-1-yn-1-yl)thiophene-2-carboxylic acid]
[1]
  IC50: 0.1 to 1 µM
[2]
  CC50: 10 to 100 µM

## CC(CN(c1cc(C#CC(C)(C)C)sc1C(=O)O)C(=O)[C@H]1CC[C@H](C)CC1)n1cccn1 (stereo partly drawn) [Compound 73, 5-(3,3-Dimethylbut-1-ynyl)-3-[(4-trans-methylcyclohexanecarbonyl)-(2-pyrazol-1-ylpropyl)amino]thiophene-2-carboxylic acid]
[1]
  IC50: < 0.1 µM
[2]
  CC50: 10 to 100 µM

## CC(=O)N1CC[C@@H](N(c2cc(C#CC(C)(C)C)sc2C(=O)O)C(=O)[C@H]2CC[C@H](C)CC2)C1 (stereo in doubt) [Compound 60, 3-(N—((R)-1-Acetylpyrrolidin-3-yl)-4-trans-methylcyclohexane-carboxamido)-5-(3,3-dimethylbut-1-yn-1-yl)thiophene-2-carboxylic acid]
[1]
  IC50: 0.1 to 1 µM
[2]
  CC50: > 100 µM

## 5-(3,3-dimethylbut-1-yn-1-yl)-3-(trans-4-methyl-N—((R)-1-methylsulfonyl)pyrrolidin-3-yl)thiophene-2-carboxylic acid [Compound 69]
[1]
  IC50: < 0.1 µM
[2]
  CC50: > 100 µM

## CCc1noc(C(C)N(c2cc(C#CC(C)(C)C)sc2C(=O)O)C(=O)[C@H]2CC[C@H](C)CC2)n1 (some centres unmarked) [Compound 75]
[1]
  IC50: < 0.1 µM
[2]
  CC50: 10 to 100 µM

## COCCN(c1cc(C#CC(C)(C)C)sc1C(=O)O)C(=O)[C@H]1CC[C@H](C)CC1 [Compound 29, 5-(3,3-Dimethylbut-1-ynyl)-3-(N-(2-methoxyethyl)-4-trans-methylcyclohexanecarboxamido)thiophene-2-carboxylic acid]
[1]
  IC50: < 0.1 µM
[2]
  CC50: 10 to 100 µM

## CC[C@@H](C(=O)O)N(c1cc(C#CC(C)(C)C)sc1C(=O)O)C(=O)[C@H]1CC[C@H](C)CC1 (relative stereo) [Compound 41, 3-(N—((S)-1-carboxypropyl)-(4-trans-methylcyclohexane)-carboxamido)-5-(3,3-dimethylbut-1-yn-1-yl)thiophene-2-carboxylic acid]
[1]
  IC50: < 0.1 µM
[2]
  CC50: > 100 µM

## CCc1noc(CN(c2cc(C#CC(C)(C)C)sc2C(=O)O)C(=O)[C@H]2CC[C@H](C)CC2)n1 [Compound 78, 5-(3,3-dimethylbut-1-ynyl)-3-[(3-ethyl-1,2,4-oxadiazol-5-yl)methyl-(4-trans-methylcyclohexanecarbonyl)amino]thiophene-2-carboxylic acid]
[1]
  IC50: < 0.1 µM
[2]
  CC50: 10 to 100 µM

## 5-(3,3-dimethylbut-1-yn-1-yl)-3-(trans-4-methyl-N-((S)-1-methylsulfonyl)pyrrolidin-3-yl)thiophene-2-carboxylic acid [Compound 68]
[1]
  IC50: < 0.1 µM
[2]
  CC50: > 100 µM

## CC(C)C#Cc1cc(N(C(=O)[C@H]2CC[C@H](C)CC2)C2CCOCC2)c(C(=O)O)s1 [Compound 43, 3-(N-(tetrahydro-2H-pyran-4-yl)-4-trans-methyl-cyclohexanecarboxamido)-5-(3-methylbut-1-yn-1-yl)thiophene-2-carboxylic acid]
[1]
  IC50: < 0.1 µM
[2]
  CC50: 10 to 100 µM

## Cc1ccc(C(=O)N(c2cc(C#CC(C)(C)C)sc2C(=O)O)[C@H]2CC[C@H](O)CC2)c(C)c1 [Compound 83, 3-[(2,4-Dimethyl-benzoyl)-(trans-4-hydroxy-cyclohexyl)-amino]-5-(3,3-dimethyl-but-1-ynyl)-thiophene-2-carboxylic acid]
[3]
  IC50: 0.1 to 1 µM

## Cc1noc(C)c1CN(c1cc(C#CC(C)(C)C)sc1C(=O)O)C(=O)[C@H]1CC[C@H](C)CC1 [Compound 54, 5-(3,3-Dimethylbut-1-yn-1-yl)-3-(N-((3,5-dimethylisoxazol-4-yl)methyl)-4-trans-methylcyclohexanecarboxamido)thiophene-2-carboxylic acid]
[1]
  IC50: < 0.1 µM
[2]
  CC50: 10 to 100 µM

## Cc1ccc(C(=O)N(c2cc(C#CC(C)(C)C)sc2C(=O)O)[C@H]2CC[C@H](O)CC2)cc1F [Compound 93, 5-(3,3-Dimethyl-but-1-ynyl)-3-[(3-fluoro-4-methyl-benzoyl)-(trans-4-hydroxy-cyclohexyl)-amino]thiophene-2-carboxylic acid]
[3]
  IC50: 0.1 to 1 µM

## CC(=O)N1CC[C@H](N(c2cc(C#CC(C)(C)C)sc2C(=O)O)C(=O)[C@H]2CC[C@H](C)CC2)C1 (stereo in doubt) [Compound 59, 3-(N—((S)-1-Acetylpyrrolidin-3-yl)-4-trans-methylcyclohexanecarboxamido)-5-(3,3-dimethylbut-1-yn-1-yl)thiophene-2-carboxylic acid]
[1]
  IC50: < 0.1 µM
[2]
  CC50: > 100 µM

## CN(C)C(=O)[C@H]1C[C@H](N(c2cc(C#CC(C)(C)C)sc2C(=O)O)C(=O)[C@H]2CC[C@H](C)CC2)C1 [Compound 63, 5-(3,3-Dimethylbut-1-yn-1-yl)-3-(N-(3-trans-(dimethylcarbamoyl)-cyclobutyl)-4-trans-methylcyclohexanecarboxamido)thiophene-2-carboxylic acid]
[1]
  IC50: < 0.1 µM
[2]
  CC50: > 100 µM

## CC(C)(C)C#Cc1cc(N(Cc2ccccc2)C(=O)[C@H]2CC[C@H](C)CC2)c(C(=O)O)s1 [Compound 74, 3-[Benzyl-(4-trans-methylcyclohexanecarbonyl)amino]-5-(3,3-dimethylbut-1-ynyl)thiophene-2-carboxylic acid]
[1]
  IC50: 0.1 to 1 µM
[2]
  CC50: 10 to 100 µM

## C=CCO[C@H]1CC[C@H](N(c2cc(C#CC(C)(C)C)sc2C(=O)O)C(=O)[C@H]2CC[C@H](C)CC2)CC1 [Compound 12, 3-[(trans-4-Allyloxy-cyclohexyl)-(trans-4-methyl-cyclohexanecarbonyl)-amino]-5-(3,3-dimethyl-but-1-ynyl)-thiophene-2-carboxylic acid]
[1]; Hepatitis C virus, W11.8, 96 h
  IC50: < 0.1 µM
[4]
  CC50 at 72 h: 10 to 100 µM

## CC(C)(C)C#Cc1cc(N(Cc2cccnc2)C(=O)[C@H]2CC[C@H](C)CC2)c(C(=O)O)s1 [Compound 1]
[1]; Hepatitis C virus, W11.8, 96 h
  IC50: < 0.1 µM
[4]
  CC50 at 72 h: 10 to 100 µM

## CC(C)N(c1cc(C#CC(F)(F)F)sc1C(=O)O)C(=O)[C@H]1CC[C@H](C)CC1 [Compound 23, 3-[Isopropyl-(trans-4-methyl-cyclohexanecarbonyl)-amino]-5-trifluoroprop-1-ynyl-thiophene-2-carboxylic acid]
[1]; Hepatitis C virus, W11.8, 96 h
  IC50: 0.1 to 1 µM
[4]
  CC50 at 72 h: 10 to 100 µM

## CN(C)C(=O)[C@H]1C[C@@H](N(c2cc(C#CC(C)(C)C)sc2C(=O)O)C(=O)[C@H]2CC[C@H](C)CC2)C1 [Compound 11, 5-(3,3-dimethylbut-1-yn-1-yl)-3-(trans-4-methyl-N-(cis-3-(dimethylcarbamoyl)cyclobutyl)cyclohexanecarboxamido)thiophene-2-carboxylic acid]
[1]; Hepatitis C virus, W11.8, 96 h
  IC50: < 0.1 µM
[4]
  CC50 at 72 h: 10 to 100 µM

## CC(C)(C)C#Cc1cc(N(C(=O)[C@H]2CC[C@H](C)CC2)C2CC2)c(C(=O)O)s1 [Compound 16, 3-[Cyclopropyl-(trans-4-methyl-cyclohexanecarbonyl)-amino]-5-(3,3-dimethyl-but-1-ynyl)-thiophene-2-carboxylic acid]
[1]; Hepatitis C virus, W11.8, 96 h
  IC50: 0.1 to 1 µM
[4]
  CC50 at 72 h: 10 to 100 µM

## 3-[Cyclohex-3-enyl-(trans-4-methyl-cyclohexanecarbonyl)-amino]-5-(3,3-dimethyl-but-1-ynyl)-thiophene-2-carboxylic acid [Compound 13]
[1]
  IC50: 1 to 10 µM
[2]
  CC50: 10 to 100 µM

## Cn1ccnc1CN(c1cc(C#CC(C)(C)C)sc1C(=O)O)C(=O)[C@H]1CC[C@H](C)CC1 [Compound 64, 5-(3,3-Dimethylbut-1-ynyl)-3-((trans)-4-methyl-N-((1-methyl-1H-imidazol-2-yl)methyl)cyclohexanecarboxamido)thiophene-2-carboxylic acid]
[1]; Hepatitis C virus, W11.8, 96 h
  IC50: < 0.1 µM
[4]
  CC50 at 72 h: 10 to 100 µM

## CN(C)C[C@H]1C[C@H](N(c2cc(C#CC(C)(C)C)sc2C(=O)O)C(=O)[C@H]2CC[C@H](C)CC2)C1 [Compound 70, 5-(3,3-Dimethylbut-1-yn-1-yl)-3-(trans-4-methyl-N((trans-3-(dimethylamino)methyl)cyclobutyl)cyclohexanecarboxamido)thiophene-2 carboxylic acid]
[1]
  IC50: < 0.1 µM
[2]
  CC50: > 100 µM

## CC(Cn1cccn1)N(c1cc(C#CC(C)(C)C)sc1C(=O)O)C(=O)[C@H]1CC[C@H](C)CC1 (stereo partly drawn) [Compound 80, 5-(3,3-Dimethylbut-1-ynyl)-3-[(4-trans-methylcyclohexanecarbonyl)-(1-methyl-2-pyrazol-1-yl-ethyl)amino]thiophene-2-carboxylic acid]
[1]
  IC50: < 0.1 µM
[2]
  CC50: 10 to 100 µM

## CC(C)(C)C#Cc1cc(N(C(=O)[C@H]2CC[C@H](C)CC2)C2CC=C(F)CC2)c(C(=O)O)s1 (relative stereo) [Compound 15, 5-(3,3-Dimethyl-but-1-ynyl)-3-[(4-fluoro-cyclohex-3-enyl)-(trans-4-methyl-cyclohexanecarbonyl)-amino]-thiophene-2-carboxylic acid]
[1]; Hepatitis C virus, W11.8, 96 h
  IC50: < 0.1 µM
[4]
  CC50 at 72 h: 10 to 100 µM
